Experiments:
[1] = test system: patients with chronic pain
[2] = test system: patients with chronic pain; conditions: average of eight patients
[3] = target: T1, N-methyl-D-aspartate (NMDA) receptor (Rattus norvegicus, UniProt P35439); conditions: cited from earlier work
T1 construct: N-methyl-D-aspartate (NMDA) receptor in rat forebrain and spinal cord

[4] = test system: relatively refractory population with major depression; conditions: single dose; cited from earlier work
male Wistar rats = conditions: single dose; cited from earlier work
[5] = test system: subjects with major depression; conditions: single dose, 8 subjects; cited from earlier work
[6] = 8 patients that completed and 1 removed, 40 mg PO q12 hr
[7] = day 12 of d-methadone 40 mg every 12 hours

## CCC(=O)C(C[C@H](C)N(C)C)(c1ccccc1)c1ccccc1 [d-methadone]
[1]; 40 mg PO Q 12 hours for 12 days, patients with chronic pain and multiple co morbidities
  Tolerability: well tolerated
[1]; [6]
  Back pain: # of patients: 1
  Headache (first line): # of patients: 1
  Headache (second line): # of patients: 1
  Somnolence (Neurology): # of patients: 2
  Tremor (Neurology): # of patients: 1
[1]; CTCAE v3.0
  Back pain: Attribution: 3
  Back pain: Grade (1-5): 1
  Headache (first line): Attribution: 3
  Headache (first line): Grade (1-5): 1
  Headache (second line): Attribution: 4
  Headache (second line): Grade (1-5): 1
  Somnolence (Neurology): Attribution: 3
  Somnolence (Neurology): Grade (1-5): 2
  Tremor (Neurology): Attribution: 3
  Tremor (Neurology): Grade (1-5): 1
[1]; very sick patients with severe cancer pain
  Patients' perception of analgesia: recognized it as an effective analgesic
[2]; baseline (day 1)
  Anxiety, Baseline, average score: 2.5
  Drowsiness, Baseline, average score: 4.1
  Pain, Baseline, average score: 4.1
  Tiredness, Baseline, average score: 5.9
[2]; [7]
  Anxiety, Day 12, average score: 1.5
  Drowsiness, Day 12, average score: 2.9
  Pain, Day 12, average score: 4.1
  Tiredness, Day 12, average score: 3.6
[3]
  NMDA receptor antagonism: NMDA antagonists

## CNC1(c2ccccc2Cl)CCCCC1=O (stereo not shown) [ketamine]
[4]
  Duration of antidepressant response (relatively sustained): 1 week
  Time to antidepressant response (rapid): 110 min
Male Wistar rats
  Duration of interference with the induction of behavioral despair: up to 10 days
[5]
  Antidepressant effect: rapid and short-lived antidepressant effect

## CCC(=O)C(C[C@@H](C)N(C)C)(c1ccccc1)c1ccccc1 [l-methadone, reference compound]
[3]
  NMDA receptor antagonism: NMDA antagonists

Source: US9855226B2 (Relmada Therapeutics, Inc., priority 2012, dated 2018)
